Test results as given in US10898548B2, “Modulators of protein tyrosine phosphatase and uses thereof” (LEUVAS THERAPEUTICS, priority 2015, dated 2021).

Tests used:
JAK2 (pYpY1007/1008) = test: p-JAK2 ELISA on monocytes; format: cell-based, human; conditions: 1 hour, 50 nM fMLP 90 sec, CTRL 100
From the text: JAK2 regulation by PTPRG as assessed through the high-throughput phospho-proteomics analysis evidenced that PTPRG activation (Example 4, Table 9 and 10) provides a useful example of the exploitation of this analysis system for identification of targets and unexpected indications/uses for known and novel agents that regulate the phoshoproteome. […] Furthermore, the capability of fMLP to trigger JAKs activation has never been observed. The results described in Example 4 unexpectedly implicate JAK2 de-phosphorylation by PTPRG as playing a role in the anti-adhesive role of PTPRG on monocytes. To test this system-generated hypothesis we first set out to define the role of JAK2 in fMLP-triggered rapid adhesion in monocytes. Time course experiments, either performed with ELISA assay or Western Blot. Briefly, purified human monocytes were treated with buffer (resting) or with 50 nM fMLP for the indicated times (Table 12), and the phosphorylation was assessed by p-Jak2 elisa and Western Blot analysis. The JAK2 activation was determined with Elisa Kit JAK2 (pYpY1007/1008) (Invitrogen). Briefly, cells were stimulated with agonist and lysed following manufacturer's protocol; levels of phospho-JAK2 were quantified (absorbance at 450 nm) with a micro-well plate reader (Victor™ X5 Multilabel Plate Reader, Perkin Elmer). For Western blot analysis, cells were lysed in ice-cold 1% Nonidet P-40 buffer, containing phosphatase inhibitors and complete protease inhibitor cocktail (Roche). Total cell lysates were quantified by Bradford assay (Bio-Rad). Equal amounts of total lysates or of isolated membranes (as described in Example 1) were subjected to 10% SDS-PAGE and then blotted. After incubation with anti-PTPRG, anti gp91^Phox, anti phospho-JAK2, anti JAK2 and HRP-linked secondary antibodies (GE Healthcare), immunoreactive bands were visualized by ECL detection (EMD Millipore). Intensities of band signals were quantified by densitometric analysis (Quantity One, Bio-Rad) by using ImageQuant Las4000. Data are mean value of three experiments; the relative ratio of the band intensity of phosphor-JAK2 was normalized to the level of JAK2 band intensities.
Briefly, p-JAK2 ELISA assay on human monocytes treated with buffer (CTRL=control), 50 μM P1-WD, P1 or P1-WD scrambled peptides (Table 17), or with buffer (CTRL=control), 0.5 uM TAT-ICD or 50 μM TAT peptide (Table 18) for 1 hour at 37° C. and stimulated with 50 nM fMLP for 90 sec. Shown are percentages of fold increases over the control; mean values of 3 experiments in triplicate.

U251 GBM cells [1] = test: MTT survival assay, U251 GBM cells; format: cell-based
Method: (§1) Briefly, U251 GBM cells, normal primary cortical murine neurons and a mixed culture of murine microglia and astrocytes were treated for 24, 48 and 72 hours with no treatment (control), delivery peptide (P1 or TAT) or increasing concentrations of P1-WD or TAT-ICD. Cell viability and survival was measured using the MTT assay, a colorimetric assay for assessing cell metabolic activity set up under conditions where the absorption reflects the number of viable cells present (Table 21 and 22) and expressed as relative absorption at 570 nm. Early apoptosis was measured using VYBRANT DyeCycle Violet stain (Molecular Probes), a DNA-selective, cell membrane-permeant dye that can distinguish the compacted state of the nuclear chromatin in apoptotic cells as determined by flow cytometry and presented as the percent of cells that are apoptotic (Table 23 and 24). The actual number of cells following treatment with TAT-ICD or TAT alone (Table 25) was determined using flow cytometry compared to an input of 5,000 cells at time zero. To confirm apoptosis the TUNEL labeling assay, which detects DNA strand breaks in apoptotic cells by fluorescence microscopy, was also used to examine U251 cells treated with the PTPRG WD. Briefly, the assay used an optimized terminal transferase ([…]) to label 3′OH ends in genomic DNA with TMR-dUTP, thus allowing the measurement and quantification of cell death by apoptosis. U251 cells were pretreated for 1, 3 and 6 hours with 50 μM P1-WD. Then cells were fixed and permeabilized, incubated with TUNEL reaction mixture for 1 h at RT, and then stained with DAPI (for nuclei detection) and with Alexa670-Phalloidin (to detect actin in cell membranes). After the staining steps, cells were visualized with a confocal microscope.

U251 GBM cells [2] = test: VYBRANT DyeCycle Violet early apoptosis, U251 GBM cells; format: cell-based
Method: as §1, with “Cell” for “Briefly, U251 GBM cells, normal primary cortical murine neurons and a mixed culture of murine microglia and astrocytes were treated for 24, 48 and 72 hours with no treatment (control), delivery peptide (P1 or TAT) or increasing concentrations of P1-WD or TAT-ICD. Cell”

U251 cells = test: TUNEL labeling assay, U251 cells; format: cell-based; conditions: 50 μM P1-WD
Method: as §1
This finding was validated using the TUNEL in situ apoptosis cell death detection staining.

[3] = 50 μM P1-WD, P1 or P1-WD scrambled
[4] = P1 or P1-WD 50 uM, 24 hours, control 821
[5] = P1 or P1-WD 50 uM, 48 hours, control 1943
[6] = P1 or P1-WD 50 uM, 72 hours, control 2556
[7] = P1 or P1-WD 50 μM, 6 h, Control 5
[8] = P1 or P1-WD 50 μM, 9 h, Control 12
[9] = P1 or P1-WD 50 μM, 24 h, Control 8
[10] = 0.5 uM TAT-ICD or 50 μM TAT peptide

P1: Penetratin delivery peptide, 16 aa RQIKIWFQNRRMKWKK (SEQ ID 4), control [reference compound]
p-JAK2 ELISA, percentages of fold increases over the control (JAK2 (pYpY1007/1008); [3]): 95% | MTT relative absorption at 570 nM (U251 GBM cells [1]; [4]): 600 | MTT relative absorption at 570 nM (U251 GBM cells [1]; [5]): 1743 | MTT relative absorption at 570 nM (U251 GBM cells [1]; [6]): 2294 | percent of apoptotic cells (early apoptosis) (U251 GBM cells [2]; [7]): 8% | percent of apoptotic cells (early apoptosis) (U251 GBM cells [2]; [8]): 15% | percent of apoptotic cells (early apoptosis) (U251 GBM cells [2]; [9]): 15% | DNA fragmentation, TUNEL staining (U251 cells): did not show fragmented DNA or cell loss

P1-WD: fusion Trojan peptide SEQ ID 3: Penetratin, glycine, PTPRG wedge domain aa 831-856; RQIKIWFQNRRMKWKKGKQFVKHIGELYSNNQHGFSEDFEEVQ (listed as Homo sapiens)
p-JAK2 ELISA, percentages of fold increases over the control (JAK2 (pYpY1007/1008); [3]): 51% | MTT relative absorption at 570 nM (U251 GBM cells [1]; P1-WD 10 uM, 24 hours, control 821): 656 | MTT relative absorption at 570 nM (U251 GBM cells [1]; P1-WD 10 uM, 48 hours, control 1943): 1400 | MTT relative absorption at 570 nM (U251 GBM cells [1]; P1-WD 10 uM, 72 hours, control 2556): 1593 | MTT relative absorption at 570 nM (U251 GBM cells [1]; P1-WD 25 uM, 24 hours, control 821): 469 | MTT relative absorption at 570 nM (U251 GBM cells [1]; P1-WD 25 uM, 48 hours, control 1943): 820 | MTT relative absorption at 570 nM (U251 GBM cells [1]; P1-WD 25 uM, 72 hours, control 2556): 1281 | MTT relative absorption at 570 nM (U251 GBM cells [1]; [4]): 411 | MTT relative absorption at 570 nM (U251 GBM cells [1]; [5]): 733 | MTT relative absorption at 570 nM (U251 GBM cells [1]; [6]): 1060 | percent of apoptotic cells (early apoptosis) (U251 GBM cells [2]; P1-WD 10 μM, 6 h, Control 5): 13% | percent of apoptotic cells (early apoptosis) (U251 GBM cells [2]; P1-WD 10 μM, 9 h, Control 12): 21% | percent of apoptotic cells (early apoptosis) (U251 GBM cells [2]; P1-WD 10 μM, 24 h, Control 8): 25% | percent of apoptotic cells (early apoptosis) (U251 GBM cells [2]; P1-WD 25 μM, 6 h, Control 5): 21% | percent of apoptotic cells (early apoptosis) (U251 GBM cells [2]; P1-WD 25 μM, 9 h, Control 12): 30% | percent of apoptotic cells (early apoptosis) (U251 GBM cells [2]; P1-WD 25 μM, 24 h, Control 8): 30% | percent of apoptotic cells (early apoptosis) (U251 GBM cells [2]; [7]): 33% | percent of apoptotic cells (early apoptosis) (U251 GBM cells [2]; [8]): 40% | percent of apoptotic cells (early apoptosis) (U251 GBM cells [2]; [9]): 40% | DNA fragmentation, TUNEL staining (U251 cells): fragmented DNA as early as 3 hours after initiation of treatment

TAT (GRKKRRQRRRPPQ; listed as Homo sapiens) [reference compound]
p-JAK2 ELISA, percentages of fold increases over the control (JAK2 (pYpY1007/1008); [10]): 99% | MTT relative absorption at 570 nM (U251 GBM cells [1]; TAT 50 uM, 24 hrs, Control 821): 825 | MTT relative absorption at 570 nM (U251 GBM cells [1]; TAT 50 uM, 48 hrs, Control 1943): 1654 | MTT relative absorption at 570 nM (U251 GBM cells [1]; TAT 50 uM, 72 hrs, Control 2556): 2068 | percent of apoptotic cells (early apoptosis) (U251 GBM cells [2]; TAT 50 uM, 6 hr, CTRL 4.6): 10.0% | percent of apoptotic cells (early apoptosis) (U251 GBM cells [2]; TAT 50 uM, 9 hr, CTRL 6.0): 11.0% | percent of apoptotic cells (early apoptosis) (U251 GBM cells [2]; TAT 50 uM, 24 hr, CTRL 7.0): 8.0% | DNA fragmentation, TUNEL staining (U251 cells): did not show fragmented DNA or cell loss

TAT-ICD: fusion recombinant protein SEQ ID 5: PTPRG intracellular domain aa 797-1445 fused to 13 aa TAT sequence
p-JAK2 ELISA, percentages of fold increases over the control (JAK2 (pYpY1007/1008); [10]): 53% | MTT relative absorption at 570 nM (U251 GBM cells [1]; TAT-ICD 0.5 uM, 24 hrs, Control 821): 568 | MTT relative absorption at 570 nM (U251 GBM cells [1]; TAT-ICD 0.5 uM, 48 hrs, Control 1943): 969 | MTT relative absorption at 570 nM (U251 GBM cells [1]; TAT-ICD 0.5 uM, 72 hrs, Control 2556): 1630 | MTT relative absorption at 570 nM (U251 GBM cells [1]; TAT-ICD 1.0 uM, 24 hrs, Control 821): 353 | MTT relative absorption at 570 nM (U251 GBM cells [1]; TAT-ICD 1.0 uM, 48 hrs, Control 1943): 526 | MTT relative absorption at 570 nM (U251 GBM cells [1]; TAT-ICD 1.0 uM, 72 hrs, Control 2556): 830 | MTT relative absorption at 570 nM (U251 GBM cells [1]; TAT-ICD 2.0 uM, 24 hrs, Control 821): 244 | MTT relative absorption at 570 nM (U251 GBM cells [1]; TAT-ICD 2.0 uM, 48 hrs, Control 1943): 236 | MTT relative absorption at 570 nM (U251 GBM cells [1]; TAT-ICD 2.0 uM, 72 hrs, Control 2556): 279 | percent of apoptotic cells (early apoptosis) (U251 GBM cells [2]; TAT-ICD 0.5 uM, 6 hr, CTRL 4.6): 2.6% | percent of apoptotic cells (early apoptosis) (U251 GBM cells [2]; TAT-ICD 0.5 uM, 9 hr, CTRL 6.0): 14.0% | percent of apoptotic cells (early apoptosis) (U251 GBM cells [2]; TAT-ICD 0.5 uM, 24 hr, CTRL 7.0): 21.0% | percent of apoptotic cells (early apoptosis) (U251 GBM cells [2]; TAT-ICD 1 uM, 6 hr, CTRL 4.6): 6.0% | percent of apoptotic cells (early apoptosis) (U251 GBM cells [2]; TAT-ICD 1 uM, 9 hr, CTRL 6.0): 17.0% | percent of apoptotic cells (early apoptosis) (U251 GBM cells [2]; TAT-ICD 1 uM, 24 hr, CTRL 7.0): 25.0% | percent of apoptotic cells (early apoptosis) (U251 GBM cells [2]; TAT-ICD 2 uM, 6 hr, CTRL 4.6): 15.0% | percent of apoptotic cells (early apoptosis) (U251 GBM cells [2]; TAT-ICD 2 uM, 9 hr, CTRL 6.0): 25.0% | percent of apoptotic cells (early apoptosis) (U251 GBM cells [2]; TAT-ICD 2 uM, 24 hr, CTRL 7.0): 30.0%
